Each compound was assayed against H1047R PIK3CA enzyme (Homo sapiens, UniProt P42336, H1047R) (assay: ADP-Glo Biochemical PIK3CA Kinase Assay).
Chain of H1047R PIK3CA enzyme (P42336 whole entry H1047R): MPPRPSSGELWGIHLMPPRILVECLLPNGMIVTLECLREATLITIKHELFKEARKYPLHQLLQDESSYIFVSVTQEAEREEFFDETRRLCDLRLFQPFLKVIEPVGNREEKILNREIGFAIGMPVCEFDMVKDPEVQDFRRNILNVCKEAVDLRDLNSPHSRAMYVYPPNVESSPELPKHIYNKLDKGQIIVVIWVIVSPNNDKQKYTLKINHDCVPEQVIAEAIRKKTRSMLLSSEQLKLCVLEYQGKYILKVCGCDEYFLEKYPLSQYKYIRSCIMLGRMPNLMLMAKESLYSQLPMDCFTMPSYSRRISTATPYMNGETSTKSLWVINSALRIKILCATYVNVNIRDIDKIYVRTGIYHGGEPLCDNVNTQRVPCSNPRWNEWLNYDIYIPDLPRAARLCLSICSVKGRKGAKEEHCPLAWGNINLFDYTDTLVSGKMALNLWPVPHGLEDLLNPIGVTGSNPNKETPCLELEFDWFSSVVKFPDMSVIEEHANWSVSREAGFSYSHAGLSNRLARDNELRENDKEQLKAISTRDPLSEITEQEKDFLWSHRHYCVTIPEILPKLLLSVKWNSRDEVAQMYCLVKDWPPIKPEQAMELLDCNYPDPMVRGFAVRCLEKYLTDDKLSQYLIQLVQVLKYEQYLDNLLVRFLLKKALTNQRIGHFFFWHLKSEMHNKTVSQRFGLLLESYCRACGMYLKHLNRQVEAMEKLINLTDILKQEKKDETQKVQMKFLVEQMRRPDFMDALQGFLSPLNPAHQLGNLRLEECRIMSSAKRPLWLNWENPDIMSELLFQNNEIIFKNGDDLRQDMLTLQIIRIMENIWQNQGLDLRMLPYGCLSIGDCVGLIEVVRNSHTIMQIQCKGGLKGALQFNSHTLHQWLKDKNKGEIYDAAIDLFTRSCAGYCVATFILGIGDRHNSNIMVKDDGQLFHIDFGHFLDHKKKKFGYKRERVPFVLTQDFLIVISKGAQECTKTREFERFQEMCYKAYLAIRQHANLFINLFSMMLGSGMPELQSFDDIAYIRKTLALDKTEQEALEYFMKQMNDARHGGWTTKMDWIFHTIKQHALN
Chain of H1047R PIK3CA enzyme (P27986 whole entry partner): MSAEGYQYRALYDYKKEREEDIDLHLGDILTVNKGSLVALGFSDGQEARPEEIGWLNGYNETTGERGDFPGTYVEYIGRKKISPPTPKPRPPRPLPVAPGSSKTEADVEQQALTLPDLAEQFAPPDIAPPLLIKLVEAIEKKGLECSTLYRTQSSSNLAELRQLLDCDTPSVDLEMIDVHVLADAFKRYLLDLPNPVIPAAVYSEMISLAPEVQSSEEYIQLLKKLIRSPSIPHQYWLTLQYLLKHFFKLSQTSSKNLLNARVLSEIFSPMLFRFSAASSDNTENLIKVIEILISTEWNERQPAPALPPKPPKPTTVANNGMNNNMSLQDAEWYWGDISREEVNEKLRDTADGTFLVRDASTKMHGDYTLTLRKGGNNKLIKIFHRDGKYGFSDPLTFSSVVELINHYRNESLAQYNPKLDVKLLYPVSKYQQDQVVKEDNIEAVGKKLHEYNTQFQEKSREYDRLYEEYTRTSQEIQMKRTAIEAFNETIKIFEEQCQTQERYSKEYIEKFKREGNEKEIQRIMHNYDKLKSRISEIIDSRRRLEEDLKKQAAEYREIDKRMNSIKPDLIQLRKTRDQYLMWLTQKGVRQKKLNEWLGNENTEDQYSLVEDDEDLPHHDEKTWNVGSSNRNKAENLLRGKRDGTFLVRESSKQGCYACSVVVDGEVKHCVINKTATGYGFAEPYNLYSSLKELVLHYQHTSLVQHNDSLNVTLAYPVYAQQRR

Row | SMILES | IC50 [nM]
1 | O=C(Nc1ccnc2c1C(c1ccccc1Cl)NC2=O)c1cc(F)cc(C(F)(F)F)c1 (centres unmarked) [Compound I-208] | 500 to 1000
2 | Cc1ccccc1C1NC(=O)c2cccc(NC(=O)N3CCCCC3)c21 (centres unmarked) [Compound I-433] | 10000 to 100000
3 | C[C@H](C#N)n1cc(-c2cc(NC(=O)c3cc(F)cc(C(F)(F)F)c3)c3c(c2)C(=O)N[C@H]3c2cc(F)ccc2Cl)cn1 (single isomer, unassigned) [Compound I-1916] | ≤ 100
4 | O=C1NC(c2cc(F)ccc2Cl)c2c(NC(=O)N3CCc4ccccc43)cc(Br)cc21 (centres unmarked) [Compound I-309] | ≤ 100
5 | O=C(Nc1cc(-c2cccnc2)nc2c1C(c1cc(F)ccc1Cl)NC2=O)c1cc(F)cc(Cl)c1 (centres unmarked) [Compound I-455] | 100 to 500
6 | O=C(Nc1cc(-c2ccc3ncc(C(F)F)n3c2)cc2c1[C@H](c1cc(F)ccc1Cl)NC2=O)c1cc(F)cc(C(F)(F)F)c1 [Compound I-1937] | ≤ 100
7 | O=C(Nc1cc(-c2ccc3ncnn3c2)cc2c1C(c1cc(F)ccc1Cl)NC2=O)c1nc2ccccc2s1 (centres unmarked) [Compound I-1631] | 1000 to 10000
8 | O=C1N[C@H](c2cc(F)ccc2Cl)c2c(Nc3nccc4c(C(F)(F)F)cc(F)cc34)cc(Br)cc21 [Compound I-1110] | 1000 to 10000
9 | Cc1ccc(C(=O)Nc2cc(-c3ccc4ncnn4c3)cc3c2[C@H](c2cc(F)ccc2Cl)NC3=O)cc1C(F)(F)F (stereo in doubt) [Compound I-1167] | ≤ 100
10 | O=C1Cc2cccc(NC(=O)c3cc(F)cc(C(F)(F)F)c3)c2C(c2ccccc2Cl)N1 (centres unmarked) [Compound I-1178] | 1000 to 10000
11 | O=C(Nc1cc(-c2ccc3ncnn3c2)c(-c2ccc3ncnn3c2)c2c1C(c1cc(F)ccc1Cl)NC2=O)c1cc(F)cc(C(F)(F)F)c1 (centres unmarked) [Compound I-1802] | 100 to 500
12 | O=C1NC(c2cc(F)ccc2Cl)c2c(NC(=O)c3c[nH]c4cccc(Cl)c34)cc(Br)cc21 (centres unmarked) [Compound I-956] | 1000 to 10000
13 | O=C(Nc1cc(Br)cc2c1C(c1cc(F)ccc1Cl)NC2=O)c1cc(Cl)ccc1Cl (centres unmarked) [Compound I-795] | 1000 to 10000
14 | O=C1N[C@@H](c2cc(F)ccc2Cl)c2c(NC(=O)N3C[C@](O)(C(F)F)c4ccccc43)cccc21 (single isomer, unassigned) [Compound I-2485] | 1000 to 10000
15 | O=C(Nc1cc(C2=CN3CCN=C3C=C2)cc2c1[C@@H](c1cc(F)ccc1Cl)NC2=O)c1cc(F)cc(C(F)(F)F)c1 [Compound I-2091] | 500 to 1000
16 | O=C1NC(c2cc(F)ccc2Cl)c2c(NC(=O)N3CCCc4ccccc4C3)cccc21 (centres unmarked) [Compound I-2305] | 10000 to 100000
17 | O=C1NC(c2cc(F)ccc2Cl)c2c(NC(=O)c3noc4c3COCC4)cccc21 (centres unmarked) [Compound I-2232] | 10000 to 100000
18 | O=C(Nc1cc(B(O)O)cc2c1C(c1cc(F)ccc1Cl)NC2=O)c1cc(F)cc(Cl)c1 (centres unmarked) [Compound I-385] | ≤ 100
19 | N#Cc1nn(C(F)F)cc1-c1cc(NC(=O)c2cc(F)cc(C(F)(F)F)c2)c2c(c1)C(=O)NC2c1cc(F)ccc1Cl (centres unmarked) [Compound I-1826] | ≤ 100
20 | N#Cc1cc(F)cc(C(=O)Nc2ccnc3c2C(c2ccccc2Cl)NC3=O)c1 (centres unmarked) [Compound I-235] | 10000 to 100000
21 | O=C1NC(c2cc(F)ccc2Cl)c2c1cc(-c1ccc3ncnn3c1)cc2C1=CCNCC1 (centres unmarked) [Compound I-1997] | 10000 to 100000
22 | C[C@@](O)(CC#N)c1cc(NC(=O)c2cc(F)cc(C(F)(F)F)c2)c2c(c1)C(=O)N[C@H]2c1cc(F)ccc1Cl (single isomer, unassigned) [Compound I-1395] | ≤ 100
23 | O=C(Nc1cc(-c2ccn3ncnc3c2)cc2c1[C@@H](c1cc(F)ccc1Cl)NC2=O)c1cc(F)cc(C(F)(F)F)c1 (stereo in doubt) [Compound I-1596] | 1000 to 10000
24 | O=C(Nc1cc(C2CCCO2)cc2c1C(c1cc(F)ccc1Cl)NC2=O)c1cc(F)cc(C(F)(F)F)c1 (centres unmarked) [Compound I-364] | ≤ 100
25 | O=C1NC[C@@H](c2cc(NC(=O)c3cc(F)cc(C(F)(F)F)c3)c3c(c2)C(=O)N[C@@H]3c2cc(F)ccc2Cl)O1 (single isomer, unassigned) [Compound I-1560] | 500 to 1000
26 | O=C1NC(c2cc(F)ccc2Cl)c2c(NC(=O)C3COC4CCCCC43)cccc21 (centres unmarked) [Compound I-2302] | 10000 to 100000

— patent US12581252B2, “Substituted pyrrolo[3,4-b]pyridines as PI3K-α inhibitors” (Relay Therapeutics, Inc., priority 2020, dated 2026)
